According to the NIST ThermoML archive (doi:10.1021/je300972a):

Key:
[1] = refractive index (Na D-line) (dimensionless); details: 101.33 kPa, Liquid, Standard Abbe refractometry
[2] = 101 kPa, Liquid; for viscosity: Falling or rolling sphere viscometry; for mass density: Vibrating tube method
[3] = refractive index (Na D-line) (dimensionless); xn = mol fraction of the nth substance listed; details: 101 kPa, Liquid, Standard Abbe refractometry, x1 = 1
[4] = xn = mol fraction of the nth substance listed; details: 101 kPa, Liquid, x1 = 1; for viscosity: Falling or rolling sphere viscometry; for mass density: Vibrating tube method

CCCC[n+]1ccccc1.F[B-](F)(F)F [1-butylpyridinium tetrafluoroborate]
Details | mass density, [2] [kg/m3] | refractive index, [1] | viscosity, [2] [mPa·s]
293.15 K | 1217.1 | 1.447 | 227.1
303.15 K | 1210.3 | 1.4444 | 123.6
313.15 K | 1203.5 | 1.4418 | 74.8
323.15 K | 1196.7 | 1.4392 | 48.1
333.15 K | 1189.9 | 1.4366 | 33
343.15 K | 1183.2 | 1.4341 | 23.8
353.15 K | 1176.5 | 1.4315 | 17.7

CCCC[n+]1ccc(C)cc1.O=S(=O)([N-]S(=O)(=O)C(F)(F)F)C(F)(F)F
Details | mass density, [2] [kg/m3] | refractive index, [1] | viscosity, [2] [mPa·s]
293.15 K | 1416.6 | 1.448 | 70.6
303.15 K | 1407.3 | 1.4449 | 45.2
313.15 K | 1398.1 | 1.4419 | 30.6
323.15 K | 1388.8 | 1.4388 | 21.8
333.15 K | 1379.7 | 1.4358 | 16.1
343.15 K | 1370.5 | 1.4328 | 12.3
353.15 K | 1361.5 | 1.4298 | 9.8

CCCC[n+]1ccccc1.F[B-](F)(F)F [1-butylpyridinium tetrafluoroborate] + CCCC[n+]1ccc(C)cc1.O=S(=O)([N-]S(=O)(=O)C(F)(F)F)C(F)(F)F
Details | mass density, [4] [kg/m3] | refractive index, [3] | viscosity, [4] [mPa·s]
293.15 K | 1217.1 | 1.447 | 227.1
303.15 K | 1210.3 | 1.4444 | 123.6
313.15 K | 1203.5 | 1.4418 | 74.8
323.15 K | 1196.7 | 1.4392 | 48.1
333.15 K | 1189.9 | 1.4366 | 33
343.15 K | 1183.2 | 1.4341 | 23.8
353.15 K | 1176.5 | 1.4315 | 17.7
